According to paper PMC3559007 (Neuron, 2013):
Residue numbers refer to the chain shown, from its start. pIC50: −log10 of the molar value. Like-named read-outs stand apart in the source and are kept apart here.

What was measured:
human Hv1 channel [1] = target: T1, human Hv1 channel (Homo sapiens, UniProt Q96D96); conditions: cited from earlier work; for Inhibition of Hv1 channel by intracellular quaternary ammonium ions: ref Musset et al., 2011, Ramsey et al., 2006
T1 sequence (Q96D96 1-273): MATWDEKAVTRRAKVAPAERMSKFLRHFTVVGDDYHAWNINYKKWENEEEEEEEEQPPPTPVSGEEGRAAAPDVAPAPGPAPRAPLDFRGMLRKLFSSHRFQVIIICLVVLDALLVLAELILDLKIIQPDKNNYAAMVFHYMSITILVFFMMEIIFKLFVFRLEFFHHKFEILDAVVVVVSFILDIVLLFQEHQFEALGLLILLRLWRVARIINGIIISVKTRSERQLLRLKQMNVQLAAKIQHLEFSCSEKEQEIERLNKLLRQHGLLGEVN

Hv1 F150A = target: T2, Hv1 F150A (Homo sapiens, UniProt Q96D96, F150A); assay: Inside-out patch clamp, inhibition of Hv1 F150A mutant; type: cell-based; conditions: 1 µM 2GBI, 500 µM guanidinium, 7.9 mM magnesium, intracellular
T2 sequence (Q96D96 1-273 F150A): T1 sequence (Q96D96 1-273) with F150A

human Hv1 channel [2] = target: T1, human Hv1 channel; assay: Inside-out patch clamp of proton currents, Xenopus oocytes expressing human Hv1; type: cell-based; conditions: for Inhibition of Hv1 proton current compared with 2GBI: 200 µM intracellular, inside-out patch, +120 mV
[3] = system: F150A-WT linked Hv1 heterodimers; assay: Inside-out patch clamp, partial block of linked F150A-WT Hv1 heterodimers; type: cell-based, human; conditions: 2 µM 2GBI, +120 mV

## N=C(N)N [Compound 1, Guanidine]
Human Hv1 channel [1]; ref Tombola et al., 2008
  Inhibition of Hv1 and effect on activation curve: inhibit Hv1 without shifting the channel’s activation curve
Hv1 F150A
  Difference in binding affinity between F150A and wild type channels: much smaller difference
Human Hv1 channel [2]
  Concentration range effective at inhibiting proton currents: millimolar concentration range

## N=C(N)Nc1nc2ccccc2[nH]1 [Compound 7, 2-guanidinobenzimidazole]
[3]
  Total inhibition of the initial current: ~ 50%
[3]; estimated from dissociation constants of homodimers
  Estimated fraction of wild type subunits blocked: ~6%

## CN(C)C(=N)N=C(N)N [Compound 8, metformin, reference compound]
Human Hv1 channel [2]
  Inhibition of Hv1 proton current compared with 2GBI: not as effective as 2GBI

## Cc1nc(NC(=N)N)nc2ccccc12 [Compound 9, 2-guanidino-4-methylquinazoline]
Human Hv1 channel [2]
  Inhibition of Hv1 proton current compared with 2GBI: not as effective as 2GBI

## CC(=O)N(C(=N)NC(=N)N)c1ccccc1 [Compound 10, N-(guanidino-imino-methyl)-N-phenylacetamide]
Human Hv1 channel [2]
  Inhibition of Hv1 proton current compared with 2GBI: not as effective as 2GBI

## N=C(N)Nc1nc2ccccc2o1 [Compound 11, 1-(1,3-benzoxazol-2-yl)guanidine]
Human Hv1 channel [2]
  pIC50: ~2.05

## N=C(N)Nc1nc2ccccc2s1 [Compound 12, 1-(1,3-benzothiazol-2-yl)guanidine]
Human Hv1 channel [2]
  Inhibition of Hv1 proton current compared with 2GBI: almost as effectively as 2GBI

## CC[N+](CC)(CC)CC [TEA^+, tetraethylammonium]
Human Hv1 channel [1]
  Inhibition of Hv1 channel by intracellular quaternary ammonium ions: do not inhibit

## C[N+](C)(C)C [TMA^+]
Human Hv1 channel [1]
  Inhibition of Hv1 channel by intracellular quaternary ammonium ions: do not inhibit

## [Mg+2] [magnesium, reference compound]
Hv1 F150A
  Difference in binding affinity between F150A and wild type channels: no difference
Human Hv1 channel [2]; wild type Hv1, GBOZ curve extrapolated above solubility limit
  pIC50: ~2.05
